Laboratory results taken from PubChem BioAssay AID1745844 (Carcinogenic Potency Database (CPDB), 2022).
Active and inactive are the calls of the source. No rule for the calls is given here.

System: rodent lifetime carcinogenesis bioassay, tumor incidence TD50
Assay: chronic cancer bioassays in animals – CPDB, compiled studies (AID 1745844)
Settings: in feed

O=[N+]([O-])c1ccc(-c2cnc3ccccn23)o1
active: carcinogen call (mouse, strain CTM, females, site: any site (literature study), lesion: several types, types named in the paper, dosed 40 weeks, study length 79 weeks) positive | TD50 (mouse, strain CTM, females, site: several sites, sites named in the paper, lesion: carcinoma, dosed 40 weeks, study length 79 weeks) 21.6 mg/kg/day | TD50 (mouse, strain CTM, females, site: several sites, sites named in the paper, lesion: papilloma, dosed 40 weeks, study length 79 weeks) 117 mg/kg/day | TD50 (mouse, strain CTM, males, site: any site (literature study), lesion: several types, types named in the paper, dosed 40 weeks, study length 73 weeks) 57.1 mg/kg/day | TD50 (mouse, strain CTM, males, site: several sites, sites named in the paper, lesion: carcinoma, dosed 40 weeks, study length 73 weeks) 40.1 mg/kg/day | TD50 (mouse, strain CTM, males, site: several sites, sites named in the paper, lesion: papilloma, dosed 40 weeks, study length 73 weeks) 65.8 mg/kg/day | TD50 (rat, strain Wistar, females, site: any site (literature study), lesion: several types, types named in the paper, dosed 40 weeks, study length 89 weeks) 15.8 mg/kg/day | TD50 (rat, strain Wistar, females, site: kidney, lesion: one or several types, types not named, dosed 40 weeks, study length 89 weeks) 116 mg/kg/day | TD50 (rat, strain Wistar, females, site: mammary tissue, wider than the gland, lesion: one or several types, types not named, dosed 40 weeks, study length 89 weeks) 33.3 mg/kg/day | TD50 (rat, strain Wistar, females, site: several sites, sites named in the paper, lesion: carcinoma, dosed 40 weeks, study length 89 weeks) 443 mg/kg/day | TD50 (rat, strain Wistar, females, site: several sites, sites named in the paper, lesion: papilloma, dosed 40 weeks, study length 89 weeks) 27.5 mg/kg/day | TD50 (rat, strain Wistar, males, site: any site (literature study), lesion: several types, types named in the paper, dosed 40 weeks, study length 83 weeks) 11.9 mg/kg/day | TD50 (rat, strain Wistar, males, site: kidney, lesion: one or several types, types not named, dosed 40 weeks, study length 83 weeks) 21.4 mg/kg/day | TD50 (rat, strain Wistar, males, site: several sites, sites named in the paper, lesion: carcinoma, dosed 40 weeks, study length 83 weeks) 104 mg/kg/day | TD50 (rat, strain Wistar, males, site: several sites, sites named in the paper, lesion: papilloma, dosed 40 weeks, study length 83 weeks) 43.7 mg/kg/day
781 mg/kg/day: TD50 (mouse, strain CTM, females, site: thyroid gland, lesion: lymphosarcoma, dosed 40 weeks, study length 79 weeks)
959 mg/kg/day: TD50 (rat, strain Wistar, males, site: liver, lesion: hepatoma, dosed 40 weeks, study length 83 weeks)
644 mg/kg/day: TD50 (rat, strain Wistar, females, site: liver, lesion: hepatoma, dosed 40 weeks, study length 89 weeks)
inactive: carcinogen call (mouse, strain CTM, females, site: liver, lesion: hepatoma, dosed 40 weeks, study length 79 weeks) negative | carcinogen call (mouse, strain CTM, females, site: lung, lesion: one or several types, types not named, dosed 40 weeks, study length 79 weeks) negative | carcinogen call (mouse, strain CTM, males, site: liver, lesion: hepatoma, dosed 40 weeks, study length 73 weeks) negative | TD50 (mouse, strain CTM, males, site: lung, lesion: one or several types, types not named, dosed 40 weeks, study length 73 weeks) 763 mg/kg/day

C[C@H](CCc1ccccc1)NC[C@H](O)c1ccc(O)c(C(N)=O)c1
inactive: carcinogen call (rat, strain Sprague-Dawley, females, site: heart, lesion: endocardial sarcoma, dosed 104 weeks, study length 104 weeks) negative | carcinogen call (rat, strain Sprague-Dawley, males, site: heart, lesion: endocardial sarcoma, dosed 104 weeks, study length 104 weeks) negative
